“Also recorded” adds a separate entry of the source.

One data set deals with A2-receptors. The conditions noted are these: background; cited from earlier work.
For data set [1], the target named is T1, Coronary A2-Adenosine Receptor (Canis lupus familiaris, UniProt P11617).
T1 construct: The assay of coronary vasoactivity in the anesthetized, open-chest dog; from tissue; host or cells: coronary vessels in situ, anesthetized open-chest dog
The experiment in a line: Coronary vasoactivity in the anesthetized, open-chest dog (intracoronary infusion; MPR from EC50). The data set is classed as in vivo. From the text:
(§1) In the present invention there is compared the A1 - and A2 -potencies of a series of long-chain derivatives of adenosine suitable for attachment to "carriers," such as peptides or proteins, and for immobilization to polymeric matrices for affinity chromatography of adenosine receptors. The method employed is a comparison of increasing coronary blood flow via activation of an A2 -adenosine receptor versus an A1 -binding assay in rat brain.
(§2) The potencies at A2 -receptors (Table 1) are expressed as a molar potency ratio of the EC50 value of adenosine divided by that of the adenosine analogue. A common reference compound on which to base molar potency ratios was needed to facilitate comparison of activities at A1 and A2 receptors. Adenosine itself cannot be used as a reference in the A1 binding assay since treatment of the membranes with adenosine deaminase is essential. […] Thus, MeAdo was used as a suitable reference compound.
The assay of coronary vasoactivity in the anesthetized, open-chest dog, is described by Kusachi et al, J. Med. Chem., in press, and Olsson, et al, J. Circ. […] The assay estimates an EC-50, the concentration of analogue which produces a half maximum change in coronary conductance (reciprocal resistance). To reduce between-animal variability activity is expressed as a molar potency ratio (MPR) the value of the EC-50 of adenosine divided by that of the analogue. Owing to the low water solubility of some of the analogues, solutions for intracoronary infusion were prepared by diluting stock solutions in dimethyl sulfoxide. In such instances, solutions of adenosine used to establish a standard of potency also contained dimethyl sulfoxide. […]

The next data set deals with A1-receptors. The settings on record: background; cited from earlier work.
The nature of a further data set: Water solubility. The data set is classed as physicochemical.
Data set [2] has as its target T2, Brain A1-adenosine receptor (Rattus norvegicus, UniProt P25099).
T2 construct: -cyclohexyladenosine to rat cerebral cortical membranes; from tissue; host or cells: rat cerebral cortical membranes
T2 sequence (P25099 1-326): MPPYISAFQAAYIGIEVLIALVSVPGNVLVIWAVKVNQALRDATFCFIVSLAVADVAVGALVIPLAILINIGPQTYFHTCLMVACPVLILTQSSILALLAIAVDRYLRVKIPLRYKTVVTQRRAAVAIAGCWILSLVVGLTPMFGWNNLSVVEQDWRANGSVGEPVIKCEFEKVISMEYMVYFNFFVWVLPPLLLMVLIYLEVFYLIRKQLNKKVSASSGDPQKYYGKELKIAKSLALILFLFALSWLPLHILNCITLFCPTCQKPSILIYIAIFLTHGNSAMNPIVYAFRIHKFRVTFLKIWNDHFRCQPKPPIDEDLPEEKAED
The experiment in a line: A1-binding assay: antagonism of binding of 1nM [3H]N6-cyclohexyladenosine to rat cerebral cortical membranes. The settings on record: molar potency ratio derived from Ki values; rat cerebral cortical membranes.
From the text: as §1
^b Molar potency ratio relative to adenosine, derived from Ki
values for antagonism of binding of 1nM [^3 H]N^6
-cyclohexyladenosine to rat cerebral cortical membranes.
as §2

In data set [3] the target is T3, A2-adenosine receptor (adenylate cyclase, human platelet membranes) (Homo sapiens, UniProt P29274).
T3 construct: stimulation of adenylate cyclase in human platelet membranes; from tissue; host or cells: human platelet membranes
T3 sequence (P29274 whole entry): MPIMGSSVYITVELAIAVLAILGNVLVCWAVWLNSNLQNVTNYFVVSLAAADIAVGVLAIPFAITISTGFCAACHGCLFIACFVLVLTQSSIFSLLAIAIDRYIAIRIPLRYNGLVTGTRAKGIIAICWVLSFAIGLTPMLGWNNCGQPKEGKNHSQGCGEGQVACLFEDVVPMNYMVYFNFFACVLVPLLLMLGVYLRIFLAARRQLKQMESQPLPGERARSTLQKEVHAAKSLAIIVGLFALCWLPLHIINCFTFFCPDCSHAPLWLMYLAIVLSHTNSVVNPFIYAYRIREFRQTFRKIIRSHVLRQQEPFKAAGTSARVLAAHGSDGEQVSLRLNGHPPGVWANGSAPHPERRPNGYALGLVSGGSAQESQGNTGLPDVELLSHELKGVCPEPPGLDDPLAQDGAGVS
The experiment in a line: Stimulation of adenylate cyclase in human platelet membranes. The data set is classed as biochemical. The conditions noted are these: human platelet membranes; read-out: IC50 (printed lC50), stimulation of adenylate cyclase.

T1 sequence (P11617 whole entry): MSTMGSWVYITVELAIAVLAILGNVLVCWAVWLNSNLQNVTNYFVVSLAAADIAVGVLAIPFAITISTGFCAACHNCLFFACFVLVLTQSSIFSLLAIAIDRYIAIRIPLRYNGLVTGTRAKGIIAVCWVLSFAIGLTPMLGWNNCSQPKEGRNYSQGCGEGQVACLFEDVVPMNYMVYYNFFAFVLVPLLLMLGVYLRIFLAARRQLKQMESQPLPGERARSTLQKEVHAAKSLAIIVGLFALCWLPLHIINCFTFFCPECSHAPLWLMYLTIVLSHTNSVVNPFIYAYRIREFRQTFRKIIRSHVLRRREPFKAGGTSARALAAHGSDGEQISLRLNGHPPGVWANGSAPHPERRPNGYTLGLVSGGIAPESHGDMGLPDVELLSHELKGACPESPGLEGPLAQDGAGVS

Take `CCNC(=O)[C@H]1O[C@@H](n2cnc3c(N)ncnc32)[C@H](O)[C@@H]1O` [Compound 1, N-Ethyladenosine-5'-uronamide]: in the data set with A2-receptors, the “potency at A2-receptors (rank in words)” value is “clearly the most potent”. Besides, the “coronary vasoactivity (in words)” value in data set [1] (intracoronary infusion, dog) was “exceptionally potent”. Further, in the data set on A1-receptors, the “order of potency at A1-receptors” value is “R-PIA, CHA>NECA>S-PIA”.
As to `O=C(CCCC[C@@H]1SC[C@@H]2NC(=O)N[C@@H]21)NCCCCCC(=O)NCCNC(=O)Cc1ccc(NC(=O)Cc2ccc(Nc3ncnc4c3ncn4[C@@H]3O[C@H](CO)[C@@H](O)[C@H]3O)cc2)cc1` [Compound 19], the “water solubility (in words)” value in “Water solubility” is recorded as “practically insoluble in water”. Also, in data set [1] (coronary vasodilation, intracoronary infusion), the “Onset of Action” value lay within 20 to 30 s. The “A2 versus A1 receptor selectivity (in words)” value in data set [1] (dog coronary A2 versus rat brain A1) was “highly divergent at A1 and A2 receptors”. Besides, in data set [1] (intracoronary infusion), the “Duration of Vasodilation” value is more than 1 h and the “duration of vasodilation (in words)” value was “often lasted for an hour or more”. For the same compound, in data set [1] (intracoronary infusion, dog), the “coronary vasoactivity (in words)” value is recorded as “most active analogue; also recorded: three most active analogues”. Besides, in data set [1] (molar potency ratio: EC50 of adenosine divided by that of the analogue, coronary, dog), the “A2 Receptor MPR Relative to Ado” value is 10.2 ± 7.3. For the same compound, the “A2/A1 potency ratio (MPR(A2)/MPR(A1))” value in data set [1] (ratio of MPR (MeAdo) at dog coronary A2 receptor to MPR at rat brain A1 receptor) worked out at 61. Further, the “A1 Receptor MPR Relative to MeAdo” value in data set [2] is listed as 3.3. The IC50 in data set [3] is 2400 nM.

The record behind these values is US5284834A, “Adenosine functionalized congeners as cardiovascular treating agents for animals and methods for using same” (priority 1992, dated 1994).
